The source of these data is patent US7244730B2, “2-iminopyrrolidine derivatives” (Eisai Co., Ltd, priority 2001, dated 2007).

Structures can show the parent of a compound that is named as a salt. Where two headings read alike, the source gives them in different places.

Assay [1] relates to platelet rich plasma (PRP), thrombin-induced platelet aggregation. The assay can be described thus: Inhibitory effects on platelet aggregation using platelet rich plasma. The format is cell-based. The note with it: Homo sapiens, 0.1 h, read-out: Thr IC50. As to the method: [Inhibitory Effects on Platelet Aggregation Using Platelet Rich Plasma]
Blood was sampled from a healthy adult who had taken no drugs for one week, and 3.8% citric acid (a ratio of 1:9 with respect to the blood) was added as an anticoagulant. The mixture was then centrifuged at 100 g for 10 minutes at room temperature to yield platelet rich plasma (PRP). The PRP-removed blood was further centrifuged at 1000 g for 10 minutes to yield platelet poor plasma (PPP). The number of platelet was counted using a multi-parameter automatic hemocyte counter (K4500, Sysmex), and the PRP was diluted to approximately 300,000/μl with the PPP. The platelet aggregation activity was determined in the following manner using an Aggregometer (MC Medical). GPRP-NH2 (final concentration 1 mM, 25 μl) was added as a fibrin polymerization inhibitor to the PRP (175 μl), after which Ca-free Tyrode solution (control) or the test compound suspension (25 μl) at different concentrations was added, incubation was performed at 37° C. for 3 minutes and then 25 μl of thrombin at the minimum concentration required to produce maximum aggregation (final concentration: optimum concentration among 0.5–1.5 units/ml) was added, for initiation of platelet aggregation. PRP and Ca-free Tyrode solution (control) or the preparation solutions at various concentrations were pre-incubated at 37° C. for 60 minutes, prior to the platelet aggregation reaction in some experiments. After addition of thrombin, the aggregation reaction was examined for 6 minutes and the areas under the aggregation curves were compared to determine the inhibition ratio, from which the IC50 value was calculated.

In assay [2] the test system is Vascular smooth muscle cells (rSMC). The assay can be described thus: Rat smooth muscle cell proliferation assay. The format is cell-based. The note with it: 48 h; male SD rat aorta rSMC; thrombin 0.1 unit/ml; 2 days; MTT, OD 590 nm; read-out: Rat SMC IC50. As to the method: [Rat Smooth Muscle Cell Proliferation Assay]
Vascular smooth muscle cells (rSMC) were isolated from male SD rat aorta by the explant method. DMEM medium (Sigma) containing 10% fetal bovine serum (GibcoBRL), streptomycin and penicillin was used as the proliferation medium, and subculture was carried out at 37° C. in the presence of 5% CO2. Culture was initiated after adding 100 μl of rSMC suspension in proliferation medium at a concentration of 1×10^4 cells/ml, to a 96-well plate. After 3 days, cells were rinsed twice with 100 μl of DMEM medium, the medium was exchanged with 100 μl of DMEM medium containing 0.1% albumin (starvation medium), and serum starvation was initiated. The medium was exchanged two days after the serum starvation, 80 μl of starvation medium and 10 μl of the test compound diluted to different concentrations with the starvation medium were added, and then 10 μl of thrombin dissolved in the starvation medium (final concentration: 0.1 unit/ml) was added prior to further incubation for 2 days.
Upon adding 20 μl of MTT (3-[4,5-dimethylthiazol-2-yl]-2,5-diphenyltetrazolium bromide) dissolved in DPBS to 7.5 mg/ml, incubation was continued for 4 hours. The medium was removed by suction, 50 μl of a 10% SDS/0.029% ammonia solution was added, and the mixture was allowed to stand for 2 hours in a CO2 incubator for complete lysis of the cells. As an index of cell proliferation, the OD 590 nm was measured using a plate reader (EL340, BIO-TEK Instruments Inc.), and the control OD value (OD value in the absence of the test compound) minus the OD value in the presence of the test compound was divided by the control OD value minus the blank OD value (OD value without thrombin stimulation) to determine the inhibition ratio, from which the IC50 value was calculated.

The target in another assay is T1, thrombin receptor (Homo sapiens, UniProt P25116).
T1 construct: centrifuged at 40,000 g for 60 minutes to yield platelet membrane; from tissue; host or cells: platelet membrane prepared from donor blood (platelet rich plasma)
T1 sequence (P25116 22-425): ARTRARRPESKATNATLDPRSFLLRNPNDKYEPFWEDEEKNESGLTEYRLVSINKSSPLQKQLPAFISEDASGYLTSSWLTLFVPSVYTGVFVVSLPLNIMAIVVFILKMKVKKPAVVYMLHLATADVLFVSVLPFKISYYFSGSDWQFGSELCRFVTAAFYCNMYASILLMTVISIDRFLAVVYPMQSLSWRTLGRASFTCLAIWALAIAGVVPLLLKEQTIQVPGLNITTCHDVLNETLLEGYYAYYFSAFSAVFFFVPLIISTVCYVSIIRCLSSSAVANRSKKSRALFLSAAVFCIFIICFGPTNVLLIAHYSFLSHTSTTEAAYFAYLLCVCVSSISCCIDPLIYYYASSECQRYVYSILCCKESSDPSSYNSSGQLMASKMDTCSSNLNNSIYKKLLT
The assay can be described thus: Receptor binding assay ([3H] high affinity TRAP, platelet membrane). As to the method: Blood was sampled from a healthy adult who had taken no drugs for one week, and 3.8% citric acid (a ratio of 1:9 with respect to the blood) was added as an anticoagulant. The mixture was then centrifuged at 100 g for 10 minutes at room temperature to yield platelet rich plasma (PRP). The platelet precipitate obtained by centrifuging the PRP was homogenized with a Dounce homogenizer, and then centrifuged at 40,000 g for 60 minutes to yield platelet membrane. The platelet membrane was suspended in a solution prepared by adding DMSO (dimethyl sulfoxide) at 1% concentration to Buffer 1: a 50 mM Tris-HCl buffer containing 10 mM MgCl2 and 1 mM EGTA (ethylene glycol tetraacetic acid), and the suspension was stored at −80° C. Bovine albumin and DMSO were added to Buffer 1 at 0.1% and 20%, respectively, to make preparation solutions for the test compound. The test compounds (20 μl) diluted at various concentrations with the preparation solutions were added to a 96-well multiscreen plate. […] After then adding 100 μl of the previously prepared platelet membrane suspension (0.4 mg/ml) and mixing, incubation was performed at 37° C. for 1 hour. The reaction mixture was suction filtered and then rinsed 3 times with 200 μl of Buffer 1. Next, 30 μl of liquid scintillator was added for measurement of the radioactivity of the plate using a Top Counter (Packard), the value of the radioactivity in the presence of the test compound minus non-specific binding portion was divided by the specific binding value (the value of the binding in the absence of the compound minus the non-specific binding portion) to determine the binding ratio, from which the IC50 value was calculated. The non-specific binding was the value obtained with addition of 10 μM of high affinity TRAP.

Setting [3] is: PRP of healthy adult, aggregation initiated with thrombin (0.5–1.5 units/ml), area under aggregation curve, 6 minutes.
Where [4] appears, read: platelet membrane of healthy adult, 25 nM [3H] high affinity TRAP, 37° C., 1 hour, read-out: RBA IC50.

On to `CCOc1cc2c(c(F)c1OCC)C(=N)N(CC(=O)c1cc(N3CCN(C(=O)COC)CC3)c(OC)c(C(C)(C)C)c1)C2` [Example 16, 1-{3-tert-Butyl-4-methoxy-5-[4-(2-methoxy-acetyl)piperazin-1-yl]phenyl}-2-(5,6-diethoxy-7-fluoro-1-imino-1,3-dihydro-isoindol-2-yl)-ethanone hydrobromide], for which the figures for the IC50 (in assay [1] (setting [3]); in assay [2]; on thrombin receptor (setting [4])) were 57 nM, 59 nM and 53 nM, respectively.
For `CCOc1cc2c(c(F)c1OCC)C(=N)N(CC(=O)c1cc(NC(C)C)c(OC)c(C(C)(C)C)c1)C2` [Example 26, 1-(3-tert-Butyl-5-isopropylamino-4-methoxy-phenyl)-2-(5,6-diethoxy-7-fluoro-1-imino-1,3-dihydro-isoindol-2-yl)-ethanone hydrobromide] the same measures were 79 nM, 62 nM and 17 nM.
For `CCOc1cc(C(=O)CN2Cc3cc(OCC)c(OCC)c(F)c3C2=N)cc(C(C)(C)C)c1OC` [Example 28, 1-(3-tert-Butyl-5-ethoxy-4-methoxy-phenyl)-2-(5,6-diethoxy-7-fluoro-1-imino-1,3-dihydro-isoindol-2-yl)-ethanone hydrobromide], in that order: 44 nM, 50 nM and 26 nM.
Regarding `CCNC(=O)Oc1c(OCC)cc(C(=O)CN2Cc3cc(OCC)c(OCC)c(F)c3C2=N)cc1C(C)(C)C` [Example 29, 2-tert-butyl-4-[2-(5,6-diethoxy-7-fluoro-1-imino-1,3-dihydro-isoindol-2-yl)-acetyl]-6-ethoxy-phenyl ethylcarbamate hydrobromide], the IC50 (in general, the point on the concentration scale where inhibition reaches its midpoint) amounted to 52 nM in assay [1], 70 nM in assay [2] and 76 nM at thrombin receptor.
With `CCOc1cc2c(c(F)c1OCC)C(=N)N(CC(=O)c1cc(N3CCC(=O)CC3)c(OC)c(C(C)(C)C)c1)C2` [Example 94, 1-{3-tert-Butyl-5-[2-(5,6-diethoxy-7-fluoro-1-imino-1,3-dihydro-isoindol-2-yl)-acetyl]-2-methoxy-phenyl}-piperidin-4-one hydrobromide], the IC50 in assay [1] (setting [3]) amounted to 29 nM; in assay [2], 44 nM; at thrombin receptor (setting [4]), 13 nM.
For `CCOc1cc2c(cc1C(=O)NC)C(=N)N(CC(=O)c1cc(OCC)c(O)c(C(C)(C)C)c1)C2` [Example 109, 2-[2-(3-tert-Butyl-5-ethoxy-4-hydroxy-phenyl)-2-oxo-ethyl]-6-ethoxy-3-imino-2,3-dihydro-1H-isoindole-5-carboxylic acid methylamide hydrobromide], in that order: 12 nM, 42 nM and 30 nM.
Regarding `CCOc1cc2c(c(F)c1OCC)C(=N)N(CC(=O)c1cc(N3CCNCC3)c(OC)c(C(C)(C)C)c1)C2` [Example 112, 1-(3-tert-Butyl-4-methoxy-5-piperazin-1-yl-phenyl)-2-(5,6-diethoxy-7-fluoro-1-imino-1,3-dihydro-isoindol-2-yl)-ethanone dihydrochloride], the results for the IC50 (in assay [1] (setting [3]); in assay [2]; on thrombin receptor (setting [4])) were 28 nM, 52 nM and 30 nM, respectively.
For `CCOc1cc2c(c(F)c1OCC)C(=N)N(CC(=O)c1cc(N3CCN(CC(=O)O)CC3)c(OC)c(C(C)(C)C)c1)C2` [Example 127, (4-{3-tert-Butyl-5-[2-(5,6-diethoxy-7-fluoro-1-imino-1,3-dihydro-isoindol-2-yl)-acetyl]-2-methoxy-phenyl}-piperazin-1-yl)-acetic acid dihydrochloride], in that order: 21 nM, 150 nM and 17 nM.
